This note sets out measurements from patent publication US7557137B2, “Gamma-lactams as beta-secretase inhibitors” (Bristol-Myers Squibb Company, priority 2002, dated 2009).

Bounds are passed on as bounds.

The target in this test is T1, BACE enzyme (Homo sapiens, UniProt P56817).
T1 construct: the catalytic domain, appended by a C-terminal poly-histidine tag, is secreted out into the cellular medium; made in house; host or cells: Drosophila melanogaster S2 cells
T1 sequence (P56817 75-416 limits assumed): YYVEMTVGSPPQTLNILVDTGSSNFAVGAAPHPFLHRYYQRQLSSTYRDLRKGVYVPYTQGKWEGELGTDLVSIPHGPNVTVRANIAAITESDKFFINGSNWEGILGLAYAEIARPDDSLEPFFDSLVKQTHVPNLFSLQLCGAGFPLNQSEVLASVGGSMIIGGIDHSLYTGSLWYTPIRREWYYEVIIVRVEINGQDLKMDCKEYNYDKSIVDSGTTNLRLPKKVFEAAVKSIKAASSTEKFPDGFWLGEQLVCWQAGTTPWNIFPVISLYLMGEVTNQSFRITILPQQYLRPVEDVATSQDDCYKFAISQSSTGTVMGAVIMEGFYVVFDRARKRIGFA
Briefly: BACE enzyme inhibition, fluorescence-quenched peptide substrate MCA-EVNLDAEFK(DNP). The settings on record: 50 mM acetate, pH 4.5, 0.25 mg/ml bovine serum albumin, 2.5% DMSO; read-out: Activity Rating (based on IC50 values). Format: biochemical. The text has this:
There are a number of methods by which inhibitors of the BACE enzyme can be identified experimentally. The enzyme can be obtained from membrane samples from natural tissues or cultured cells or can be expressed recombinantly in a host cell by well known methods of molecular biology. […] The enzymatic activity and/or ligand binding capability of the enzyme can be assessed within these membrane samples, or the enzyme can be purified to varying extents. As an illustrative example, the nucleic acid sequence encoding the pro and catalytic domains of human BACE can be appended on the 5′ end with an untranslated and signal sequence from the gene for acetylcholinesterase, and on the 3′ end with a sequence encoding a poly-histidine tag. This cDNA can then be expressed in Drosophila melanogaster S2 cells in which the signal and pro sequences of the transcribed/translated protein are removed by cellular proteases and the catalytic domain, appended by a C-terminal poly-histidine tag, is secreted out into the cellular medium. The enzyme can then be purified from the culture medium by nickel affinity chromatography by methods well known to those trained in the art [Mallender, W. et al., (2001) “Characterization of recombinant, soluble beta-secretase from an insect cell expression system.” Mol. Pharmacol. 59: 619-626]. Similar strategies for expressing and purifying various forms of BACE in bacterial, mammalian and other cell types would be known to one skilled in the art.
The enzyme thus obtained can be put in contact with a test compound and with an appropriate substrate on which enzyme-mediated peptide bond hydrolysis is known to occur. The ability of the test compound to diminish the rate of substrate hydrolysis can then be quantified as a measure of inhibition potency. Appropriate substrates can be prepared as peptides, proteins, or chemically modified versions of peptides or proteins, that contain an amino acid sequence that is recognized as a substrate by the enzyme. For example, the amino acid sequence immediately proximal to the beta-cleavage site within Swedish mutant APP is known to be recognized as a substrate for BACE. […] Longer peptide and protein substrates can also be designed by extending the amino acid composition on the N-terminal, the C-terminal, or both ends.
In one known application of (SEQ. ID. NO.:1), X is a 7-methoxycoumarin-4-acetyl (MCA) group and Y is a dinitrophenyl (DNP) group [Marcinkeviciene, J. et al., (2001) “Mechanism of inhibition of beta-site amyloid precursor protein-cleaving enzyme (BACE) by a statine-based peptide.” J. Biol. Chem. 276: 23790-23794]. When this peptide is intact, the natural fluorescence of the MCA group is quenched by its proximity to the DNP group. […] The increase in fluorescence intensity that accompanies enzyme-mediated peptide hydrolysis can be measured as a function of time to quantify the velocity of enzyme catalysis. In a typical assay system the BACE enzyme is diluted into a buffer system composed of 50 mM acetate, pH 4.5 containing 0.25 mg/ml bovine serum albumin. To this is added neat dimethyl sulfoxide (DMSO) or a stock solution of test compound dissolved in DMSO so that the final amount of DMSO in all assays is held constant at 2.5% (v:v). The enzymatic reaction is then initiated by addition of a stock solution of the substrate peptide to a known concentration. The fluorescence increase with time after substrate addition is monitored with an appropriate fluorescence detection instrument, such as a microplate reader or spectrofluorometer. The slope of the signal vs. time plot (progress curve) for samples to which only DMSO was added is taken as a measure of the uninhibited velocity and represents 100% enzymatic activity.
Consider `CC(=O)N[C@]1(CC(C)C)CCN([C@@H](CCc2ccccc2)C(=O)N[C@@H](Cc2ccccc2)[C@H](O)CNCCC#N)C1=O` [Example 37, 2-(3(S)-Acetylamino-3(S)-isobutyl-2-oxo-pyrrolidin-1-yl)-N-[(1S,2R)-1-benzyl-3-(2-cyano-ethylamino)-2-hydroxy-propyl]-4-phenyl-butyramide], for which the IC50 is under 100 nM.
For `CC(=O)N[C@]1(CC(C)C)CCN([C@@H](CCc2ccccc2)C(=O)N[C@@H](Cc2ccccc2)[C@H](O)CNCc2ccccc2)C1=O` [Example 35, 2-(3(S)-Acetylamino-3(S)-isobutyl-2-oxo-pyrrolidin-1-yl)-N-[(1S,2R)-1-benzyl-2-hydroxy-3-benzylamino-propyl]-4-phenyl-butyramide], the IC50 is under 100 nM.
Turning to `CCC(C)[C@@]1(NC(=O)OC)CCN([C@@H](CCc2ccccc2)C(=O)N[C@@H](Cc2ccccc2)[C@H](O)CNCc2cccc(OC)c2)C1=O` (single isomer, unassigned) [Example 16], the IC50 was under 100 nM.
For `CC[C@H](C)[C@@]1(NC(C)=O)CCN([C@@H](CCc2ccccc2)C(=O)N[C@@H](Cc2ccccc2F)[C@H](O)CNCc2cccc(OC)c2)C1=O` [Example 11, (2S)-2-(3(S)-acetylamino-3-((S)-sec-butyl)-2-oxo-pyrrolidin-1-yl)-N-[(1S,2R)-1-(2-fluorobenzyl)-2-hydroxy-3-(3-methoxy-benzylamino)-propyl]-4-phenyl-butyramide] the value was 100 to 1000 nM; for `COc1cccc(CNC[C@@H](O)[C@H](Cc2cc(F)cc(F)c2)NC(=O)[C@H](CCc2ccc3c(c2)OCO3)N2CC[C@@](CC3CC3)(NC(C)=O)C2=O)c1` [Example 39], under 100 nM.
With `CC[C@H](C)[C@@]1(NC(=O)[C@@H](N)CCC(=O)O)CCN([C@@H](CCc2ccccc2)C(=O)N[C@@H](Cc2ccccc2)[C@H](O)CNCc2cccc(OC)c2)C1=O` [Example 8] the figure was under 100 nM.
With `COc1cccc(CNC[C@@H](O)[C@H](Cc2ccccc2)NC(=O)[C@H](CCc2ccccc2)N2CCC(CC(C)C)(NC(C)=O)C2=O)c1` (stereo in doubt) [Example 28, (2S)-2-(3(S)-acetylamino-3-(isobutyl)-2-oxo-pyrrolidin-1-yl)-N-[(1S,2R)-1-benzyl-2-hydroxy-3-(3-methoxy-benzylamino)-propyl]-4-phenyl-butyramide] the figure was under 100 nM.
Take `CCC(C)[C@@]1(NC(=O)CCc2cnc[nH]2)CCN([C@@H](CCc2ccccc2)C(=O)N[C@@H](Cc2ccccc2)[C@@H](O)CNCc2cccc(OC)c2)C1=O` (single isomer, unassigned) [Example 21]: the IC50 is 100 to 1000 nM.
For the compound `COc1cccc(CC[C@@H](C(=O)N[C@@H](Cc2cc(F)cc(F)c2)[C@H](O)CNCc2cccc(OC)c2)N2CCC(CC3CC3)(NC(C)=O)C2=O)c1` (stereo in doubt) [Example 42, (2S)-2-(3(S)-acetylamino-3-(cyclopropylmethyl)-2-oxo-pyrrolidin-1-yl)-N-[(1S,2R)-1-(3,5-difluorobenzyl)-2-hydroxy-3-(3-methoxybenzylamino)-propyl]-4-(3-methoxyphenyl)-butyramide], the IC50 is under 100 nM.
In the case of `CC[C@H](C)[C@@]1(NC(C)=O)CCN([C@@H](CCc2ccccc2)C(=O)N[C@@H](Cc2ccccc2)[C@H](O)CNCc2cccc(OC)c2)C1=O` [Example 3, (2S)-2-(3(S)-Acetylamino-3-((S)-sec-butyl)-2-oxo-pyrrolidin-1-yl)-N-[(1S,2R)-1-benzyl-2-hydroxy-3-(3-methoxy-benzylamino)-propyl]-4-phenyl-butyramide], the IC50 was under 100 nM.
With `CCOC(=O)N[C@]1(C(C)CC)CCN([C@@H](CCc2ccccc2)C(=O)N[C@@H](Cc2ccccc2)[C@H](O)CNCc2cccc(OC)c2)C1=O` (single isomer, unassigned) [Example 14] the figure was under 100 nM.
